How the values were obtained:
Assay in all cases: Test D controlled growth environment herbicide test, pre- and postemergence
Assay type in all cases: in vivo
[1] = system: field poppy (Papaver rhoeas)
Method in brief: (§1)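 Pre-emergence: seeds sown in silt loam soil were sprayed with compound in a non-phytotoxic solvent mix containing surfactant. Post-emergence: plants at 2 to 18 cm (1- to 4-leaf stage) in peat moss/vermiculite medium got the same formulation. Visual 0–100 rating versus controls after 14 to 21 d.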

[2] = system: chamomile (scentless chamomile, Matricaria inodora)
Method in brief: as §1

[3] = system: canarygrass (Phalaris minor)
Method in brief: as §1

[4] = system: barley, winter (winter barley, Hordeum vulgare)
Method in brief: as §1

[5] = system: oilseed rape (Brassica napus)
Method in brief: as §1

[6] = system: blackgrass (Alopecurus myosuroides)
Method in brief: as §1

[7] = system: speedwell (bird's-eye speedwell, Veronica persica)
Method in brief: as §1

[8] = system: lambsquarters (Chenopodium album)
Method in brief: as §1

[9] = system: ryegrass, Italian (Italian ryegrass, Lolium multiflorum)
Method in brief: as §1

[10] = system: galium (catchweed bedstraw, Galium aparine)
Method in brief: as §1

[11] = system: chickweed (common chickweed, Stellaria media)
Method in brief: as §1

[12] = system: bromegrass, downy (downy bromegrass, Bromus tectorum)
Method in brief: as §1

[13] = system: buckwheat, wild (wild buckwheat, Polygonum convolvulus)
Method in brief: as §1

[14] = Postemergence, 31 g ai/ha, scale 0 to 100 (0 no effect, 100 complete control)
[15] = Postemergence, 125 g ai/ha, visual rating on scale 0 (no effect) to 100 (complete control), 14 to 21 d
[16] = Postemergence, 250 g ai/ha, scale 0 to 100 (0 no effect, 100 complete control)
[17] = Preemergence, 125 g ai/ha, scale 0 to 100 (0 no effect, 100 complete control)
[18] = Preemergence, 250 g ai/ha, scale 0 to 100 (0 no effect, 100 complete control)
[19] = postemergence, 62 g ai/ha, scale 0 to 100, 0 no effect, 100 complete control
[20] = Preemergence, 62 g ai/ha, scale 0 to 100 (0 no effect, 100 complete control)

Cc1nn(C)c(=O)c(-c2c(C)sc3ccc(Cl)cc23)c1O [Compound 104]
25: Plant response rating (scale of 0 to 100), Blackgrass ([6]; Preemergence, 31 g ai/ha)
35: Blackgrass plant response rating [6, 14] | Plant response rating, Speedwell [7, 19]
75: Plant response rating, Field Poppy [1, 15] | Plant response rating, Oilseed Rape [5, 19] | Plant response rating, Blackgrass [6, 18] | Plant response rating (scale of 0 to 100), Lambsquarters ([8]; Preemergence, 31 g ai/ha)
20: Plant response rating, Barley, Winter [4, 18] | Plant response rating (scale of 0 to 100), Oilseed Rape ([5]; Preemergence, 62 g ai/ha) | Bromegrass, Downy plant response rating [12, 14]
40: Plant response rating, Blackgrass [6, 19]
80: Plant response rating, Field Poppy [1, 16] | Chamomile plant response rating [2, 14] | Plant response rating, Canarygrass [3, 15]
0: Plant response rating (scale of 0 to 100), Field Poppy ([1]; Preemergence, 31 g ai/ha) | Barley, Winter plant response rating [4, 14] | Plant response rating (scale of 0 to 100), Barley, Winter ([4]; Preemergence, 31 g ai/ha) | Plant response rating, Barley, Winter [4, 20] | Plant response rating (scale of 0 to 100), Bromegrass, Downy ([12]; Preemergence, 31 g ai/ha) | Plant response rating (scale of 0 to 100), Buckwheat, Wild ([13]; Preemergence, 31 g ai/ha)
60: Plant response rating, Blackgrass [6, 20] | Plant response rating, Buckwheat, Wild [13, 20]
95: Plant response rating, Chamomile [2, 15] | Plant response rating, Canarygrass [3, 17] | Plant response rating, Oilseed Rape [5, 16] | Lambsquarters plant response rating [8, 14] | Plant response rating, Ryegrass, Italian [9, 15] | Plant response rating, Ryegrass, Italian [9, 16] | Plant response rating, Ryegrass, Italian [9, 19] | Plant response rating (scale of 0 to 100), Galium ([10]; Preemergence, 62 g ai/ha) | Chickweed plant response rating [11, 14] | Plant response rating, Chickweed [11, 17] | Plant response rating, Buckwheat, Wild [13, 18] | Plant response rating, Buckwheat, Wild [13, 19]
30: Speedwell plant response rating [7, 14] | Plant response rating, Bromegrass, Downy [12, 19]
70: Oilseed Rape plant response rating [5, 14] | Plant response rating, Blackgrass [6, 16] | Plant response rating, Speedwell [7, 16]
65: Plant response rating, Field Poppy [1, 19] | Plant response rating (scale of 0 to 100), Canarygrass ([3]; Preemergence, 31 g ai/ha) | Plant response rating, Canarygrass [3, 19] | Plant response rating, Blackgrass [6, 15] | Plant response rating, Blackgrass [6, 17] | Plant response rating (scale of 0 to 100), Galium ([10]; Preemergence, 31 g ai/ha) | Plant response rating, Bromegrass, Downy [12, 16] | Plant response rating, Bromegrass, Downy [12, 20] | Plant response rating, Bromegrass, Downy [12, 17]
100: Plant response rating (scale of 0 to 100), Field Poppy ([1]; Preemergence, 62 g ai/ha) | Plant response rating, Field Poppy [1, 17] | Plant response rating, Field Poppy [1, 18] | Plant response rating, Chamomile [2, 16] | Plant response rating, Canarygrass [3, 18] | Plant response rating, Lambsquarters [8, 15] | Plant response rating, Lambsquarters [8, 16] | Plant response rating (scale of 0 to 100), Lambsquarters ([8]; Preemergence, 62 g ai/ha) | Plant response rating, Lambsquarters [8, 17] | Plant response rating, Lambsquarters [8, 18] | Plant response rating, Lambsquarters [8, 19] | Plant response rating (scale of 0 to 100), Ryegrass, Italian ([9]; Preemergence, 31 g ai/ha) | Plant response rating (scale of 0 to 100), Ryegrass, Italian ([9]; Preemergence, 62 g ai/ha) | Plant response rating, Ryegrass, Italian [9, 17] | Plant response rating, Ryegrass, Italian [9, 18] | Plant response rating, Galium [10, 15] | Plant response rating, Galium [10, 16] | Plant response rating, Galium [10, 17] | Plant response rating, Galium [10, 18] | Plant response rating, Chickweed [11, 15] | Plant response rating, Chickweed [11, 16] | Plant response rating (scale of 0 to 100), Chickweed ([11]; Preemergence, 31 g ai/ha) | Plant response rating (scale of 0 to 100), Chickweed ([11]; Preemergence, 62 g ai/ha) | Plant response rating, Chickweed [11, 18] | Plant response rating, Chickweed [11, 19] | Plant response rating, Buckwheat, Wild [13, 15] | Plant response rating, Buckwheat, Wild [13, 16]
90: Plant response rating, Oilseed Rape [5, 15] | Ryegrass, Italian plant response rating [9, 14] | Plant response rating, Galium [10, 19] | Buckwheat, Wild plant response rating [13, 14]
15: Field Poppy plant response rating [1, 14] | Plant response rating, Barley, Winter [4, 16] | Plant response rating (scale of 0 to 100), Oilseed Rape ([5]; Preemergence, 31 g ai/ha)
10: Plant response rating, Barley, Winter [4, 15] | Plant response rating, Barley, Winter [4, 17] | Plant response rating, Barley, Winter [4, 19]
45: Canarygrass plant response rating [3, 14]
55: Plant response rating, Oilseed Rape [5, 17] | Plant response rating, Oilseed Rape [5, 18] | Plant response rating, Speedwell [7, 15] | Plant response rating, Bromegrass, Downy [12, 15] | Plant response rating, Buckwheat, Wild [13, 17]
85: Plant response rating, Chamomile [2, 19] | Plant response rating, Canarygrass [3, 16] | Plant response rating (scale of 0 to 100), Canarygrass ([3]; Preemergence, 62 g ai/ha) | Galium plant response rating [10, 14] | Plant response rating, Bromegrass, Downy [12, 18]
